Data published in US20240277705A1, “DOSAGE REGIMENS FOR ECUBECTEDIN” (PHARMA MAR S.A., priority 2021, published 2024).

Assays:
[1] = test system: RXF 393 (renal carcinoma); experiment: MTT cell viability assay, RXF 393; assay type: cell-based; conditions: Homo sapiens, RXF 393, 72 h; read-out: GI50, M (geometric mean, N = 3)
Description: (§1) Cell lines and cell culture: The following human cancer cell lines have been used in this example (the collection code and the tissue of origin are shown in brackets): • RXF 393 (NCI) (renal carcinoma) • Caki-1 (ATCC HTB-46) (kidney clear cell carcinoma)
(§2) Cell lines were obtained from the American Type Culture Collection (ATCC) or the National Cancer Institute (NCI). Cells were maintained in the appropriate culture medium, namely: • RPMI for RXF 393 • McCoy's 5A for Caki-1
(§3) All media were supplemented with 10% FBS, 2 mM L-Glutamine and 100 units/mL of penicillin-streptomycin.
(§4) Cell viability assay: To assess the antiproliferative activity of the compounds a colorimetric assay based on 3-(4,5-Dimethylthiazol-2-yl)-2,5-diphenyltetrazolium bromide (MTT) reduction was used. […] Culture medium was then removed and 100 μL of neat DMSO added to each well to dissolve the formazan product into a coloured solution whose absorbance at 540 nm was finally measured in a PolarStar Omega microplate multilabel reader (BMG Labtech, Ortenberg, Germany). […]
(§5) GI50 is finally used as reference value. […] To define a significant (ca. 70%) confidence interval for the geometric mean, its value must be multiplied and divided by the corresponding geometric standard deviation (GSD) which was also calculated. […]

[2] = test system: Caki-1 (kidney clear cell carcinoma); experiment: MTT cell viability assay, Caki-1; assay type: cell-based; conditions: Homo sapiens, CAKI-1, 72 h; read-out: GI50, M (geometric mean, N = 3)
Description: as §1, §2, §3, §4, §5

MEXF 462NL (melanoma) = experiment: Propidium iodide monolayer cell proliferation assay, MEXF 462NL; assay type: cell-based, human; conditions: MEXL 462NL
Description: Cell proliferation assay: A modified propidium iodide (PI) based monolayer assay was used to assess the anti-cancer activity of the compounds (Dengler WA, Schulte J, Berger DP, Mertelsmann R, Fiebig HH, Anti-Cancer Drugs 1995, 6: 522-532). Briefly, cells were harvested from exponential phase cultures, counted and plated in 96 well flat-bottom microtiter plates at a cell density of 4,000 to 30,000 cells/well dependent on the cell line's growth rate. After a 24 h recovery period, to allow the cells to resume exponential growth, 10 μl of culture medium (4 control wells/cell line/plate) or of culture medium with test compounds were added. PM14 was applied at ten concentrations in half-log increments in duplicates up to 3.16 pM and treatment continued for four days. […] After an incubation period of 1-2 hours at room temperature, fluorescence (FU) was measured using the Enspire Multimode Plate Reader (excitation A=530 nm, emission A=620 nm) to quantify the amount of attached viable cells.
IC50 and IC70 values were calculated by 4 parameter non-linear curve fit using Oncotest Warehouse Software. […]
IC50 values were determined as described in Example 2, but using the following human cancer cell lines: • MEXF 276L (melanoma) • MEXF 462NL (melanoma) • MEXF 1341L (melanoma)

WM-266-4 (Melanoma) = experiment: MTT cell viability assay, WM-266-4; assay type: cell-based; conditions: Homo sapiens
Description: Cell viability assay: To assess the antiproliferative activity of the compounds a colorimetric assay based on 3-(4,5-Dimethylthiazol-2-yl)-2,5-diphenyltetrazolium bromide (MTT) reduction was used. […] An appropriate number of cells, to reach a final cell density in the assay ranging from 5,000 to 15,000 cells per well depending on the cell line, were seeded in 96-well plates and allowed to stand in culture medium for 24 h at 37° C. under 5% CO2 and 98% humidity. Then, compounds or DMSO in culture medium were added to reach a final volume of […] and the intended compound concentration in a range covering 10 serial 2/5 dilutions starting from […] (10 μg/mL for doxorubicin) in 1% (v/v) DMSO. At this point a set of “time zero control plates” treated with 1% (v/v) DMSO were processed with MTT as described below. The rest of the plates were incubated during 72 h under the aforementioned environmental conditions. […] Culture medium was then removed and 100 μL of neat DMSO added to each well to dissolve the formazan product into a coloured solution whose absorbance at 540 nm was finally measured in a PolarStar Omega microplate multilabel reader (BMG Labtech, Ortenberg, Germany). […]
GI50 values were determined as described in Example 1, but using the following human cancer cell line: • WM-266-4 (ATCC@ CRL-1676) (Melanoma) […]

Which GI50 [1] does the source give for `COc1c(C)cc2c(c1O)[C@@H]1[C@@H]3[C@@H]4SC[C@]5(N[C@H](CO)Cc6c5[nH]c5ccccc65)C(=O)OC[C@@H](c5c6c(c(C)c(OC(C)=O)c54)OCO6)N3[C@@H](O)[C@H](C2)N1C` [PM14, ECUBECTEDIN] here?
The GI50 was 0.621 nM.

What about the GI50 [2] of the same compound?
Its GI50 is 0.611 nM.

And the IC50 (MEXF 462NL (melanoma); Homo sapiens, MEXF 462NL, read-out: IC50, μM (geometric mean))?
Its IC50 is 0.0001 µM.

What about the “IC70, μM (geometric mean)” value (MEXF 462NL (melanoma)) of the same compound?
The value was 0.0001 µM.

What about the GI50 (WM-266-4 (Melanoma)) of the same compound?
The GI50 was 1.94 nM.
